Our source for the IC50 values is patent publication US10562912B2 (C&C Research Laboratories, priority 2013, dated 2020).

Assay type in all cases: cell-based
The subject of one test is DU-145. The experiment in a line: Cell growth inhibition assay, prostate cancer cell line DU-145. Particulars: Homo sapiens, DU-145 prostate cancer cell line. Summed up:
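Luminescent CellTiter-Glo readout of viable cells after 72–96 h compound exposure (37° C., 5% CO2). Seeding: 3,000 cells/well for DU-145 and HCT116, 5,000 cells/well for SW626. Controls were medium without cells and 0.1% DMSO vehicle.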

The test system of the next test is HEL92.1.7. Kind of test: Cell growth inhibition assay, blood cancer cell line HEL92.1.7. Particulars: Homo sapiens, HEL 92.1.7, HEL92.1.7 blood cancer cell line. Summed up:
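Cells were seeded at 3,000/well (HCT116, DU-145) or 5,000/well (SW626 and the others) and exposed to serial compound dilutions for 72 to 96 h at 37 °C under 5% CO2. Viability was read as CellTiter-Glo luminescence against 0.1% DMSO and cell-free wells.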

Another test has as its system LNCaP. The experiment in a line: Cell growth inhibition assay, prostate cancer cell line LNCaP (medium with 10 ng/mL IL-6). Particulars: Homo sapiens, medium supplemented with 10 ng/mL of IL-6, 10,000 cells/well.
A further test concerns the target T1, STAT3 (Homo sapiens, UniProt P40763).
T1 construct: plasmid pSTAT3-TA-luc), which contains a stably operating STAT3 promoter; endogenous in cells
The experiment in a line: STAT3 reporter gene assay (luciferase), LNCaP stable cell line (pSTAT3-TA-luc), IL-6 stimulation. The procedure, abridged:
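LNCaP cells stably carrying pSTAT3-TA-luc, in RPMI1640 with 3% DCC-FBS, were treated with compound and then stimulated with 10 ng/mL IL-6 for 24–48 h at 37 °C. Luciferase activity was measured in lysates. A parallel plate measured viability by CellTiter-Glo, with stimulated 0.1% DMSO wells as the positive control.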

Some results are limits rather than exact numbers.

T1 sequence (P40763 whole entry): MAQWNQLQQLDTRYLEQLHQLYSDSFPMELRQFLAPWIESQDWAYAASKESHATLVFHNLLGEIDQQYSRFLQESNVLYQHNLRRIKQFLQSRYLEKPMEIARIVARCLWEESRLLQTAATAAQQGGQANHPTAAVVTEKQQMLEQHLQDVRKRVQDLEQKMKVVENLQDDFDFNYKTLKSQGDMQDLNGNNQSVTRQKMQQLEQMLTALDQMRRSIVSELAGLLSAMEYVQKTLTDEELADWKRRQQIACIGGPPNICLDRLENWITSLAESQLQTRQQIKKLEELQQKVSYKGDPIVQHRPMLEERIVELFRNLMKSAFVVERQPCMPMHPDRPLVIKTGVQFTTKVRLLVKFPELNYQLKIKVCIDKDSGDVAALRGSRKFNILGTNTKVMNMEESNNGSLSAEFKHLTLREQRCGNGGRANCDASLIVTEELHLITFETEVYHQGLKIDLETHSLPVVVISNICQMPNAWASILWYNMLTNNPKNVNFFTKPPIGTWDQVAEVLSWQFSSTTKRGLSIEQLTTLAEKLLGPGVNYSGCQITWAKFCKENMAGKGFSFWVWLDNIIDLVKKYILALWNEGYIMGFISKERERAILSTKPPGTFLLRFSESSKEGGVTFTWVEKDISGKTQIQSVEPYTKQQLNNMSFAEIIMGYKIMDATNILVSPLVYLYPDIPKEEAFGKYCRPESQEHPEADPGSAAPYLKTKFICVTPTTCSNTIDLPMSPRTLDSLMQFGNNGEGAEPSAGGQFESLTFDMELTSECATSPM

With `CC(C)Oc1cc(OC(F)(F)F)cc(C(C)(C)c2cc(Cl)cc(NC(=O)c3cc4cc(NS(=O)(=O)CCN(C)O)ccc4s3)c2)c1` [Example 210, N-(3-chloro-5-(2-(3-isopropoxy-5-(trifluoromethoxy)phenyl)propan-2-yl)phenyl)-5-((2-(hydroxy(methyl)amino)ethyl)sulfonamido)benzo[b]thiophene-2-carboxamide], the 50% inhibitory concentration (IC50) was found to be 0.073 µM in the test on DU-145, 0.57 µM with HEL92.1.7, 0.28 µM in the test with LNCaP and 0.14 µM against STAT3.

For the compound `CC(C)Oc1cc(OC(F)(F)F)cc(C(C)(C)c2cc(Cl)cc(NC(=O)c3cc4cc(N5CCCCS5(=O)=O)ccc4s3)c2)c1` [Example 211, N-(3-chloro-5-(2-(3-isopropoxy-5-(trifluoromethoxy)phenyl)propan-2-yl)phenyl)-5-(1,1-dioxido-1,2-thiazinan-2-yl)benzo[b]thiophene-2-carboxamide], the IC50 in the test on DU-145 was 0.014 µM; with HEL92.1.7 it was 0.066 µM; with LNCaP it was 0.05 µM; on STAT3, 0.007 µM.

`CC(C)Oc1cc(OC(F)(F)F)cc(C(C)(C)c2cc(Cl)cc(NC(=O)c3cc4cc(N5CCCS5(=O)=O)ccc4s3)c2)c1` [Example 212, N-(3-chloro-5-(2-(3-isopropoxy-5-(trifluoromethoxy)phenyl)propan-2-yl)phenyl)-5-(1,1-dioxidoisothiazolidin-2-yl)benzo[b]thiophene-2-carboxamide]: the half-maximal inhibitory concentration (IC50) in the test on DU-145 was determined as 0.022 µM; with HEL92.1.7 it was 0.081 µM; with LNCaP, 0.075 µM; at STAT3 it was 0.01 µM.

With `CC(C)Oc1cc(OC(F)(F)F)cc(C(C)(C)c2cc(I)cc(NC(=O)c3sc4ccc(NS(C)(=O)=O)cc4c3I)c2)c1` [Example 214, 3-iodo-N-(3-iodo-5-(2-(3-isopropoxy-5-(trifluoromethoxy)phenyl)propan-2-yl)phenyl)-5-(methylsulfonamido)benzo[b]thiophene-2-carboxamide], the half-maximal inhibitory concentration (IC50) with DU-145 is 0.3 µM; in the test on HEL92.1.7, over 1.1 µM; in the test with LNCaP it was 0.99 µM; on STAT3, 0.17 µM.

For `CC(C)Oc1cc(OC(F)(F)F)cc(C(C)(C)c2cc(Cl)cc(NC(=O)c3cc4cc(N(C)S(C)(=O)=O)c(F)cc4s3)c2)c1` [Example 215, N-(3-chloro-5-(2-(3-isopropoxy-5-(trifluoromethoxy)phenyl)propan-2-yl)phenyl)-6-fluoro-5-(N-methylmethylsulfonamido)benzo[b]thiophene-2-carboxamide], the IC50 stood at 0.002 µM in the test on DU-145, 0.007 µM in the test with HEL92.1.7, 0.006 µM in the test with LNCaP and 0.002 µM against STAT3.

On to `CC(C)Oc1cc(OC(F)(F)F)cc(C(C)(C)c2cc(Cl)cc(N(C)C(=O)c3cc4cc(N(C)S(C)(=O)=O)c(F)cc4s3)c2)c1` [Example 216, N-(3-chloro-5-(2-(3-isopropoxy-5-(trifluoromethoxy)phenyl)propan-2-yl)phenyl)-6-fluoro-N-methyl-5-(N-methylmethylsulfonamido)benzo[b]thiophene-2-carboxamide], for which the IC50 with DU-145 is 0.3 µM; in the test with HEL92.1.7 it was 0.95 µM; in the test on LNCaP it was 1.1 µM; against STAT3, 0.38 µM.

In the case of `CC(C)Oc1cc(OC(F)(F)F)cc(C(C)(C)c2cc(Cl)cc(NC(=O)c3cc4cc(N(CCN5CCOCC5)S(C)(=O)=O)c(F)cc4s3)c2)c1` [Example 217, N-(3-chloro-5-(2-(3-isopropoxy-5-(trifluoromethoxy)phenyl)propan-2-yl)phenyl)-6-fluoro-5-(N-(2-morpholinoethyl)methylsulfonamido)benzo[b]thiophene-2-carboxamide], the IC50 is 0.58 µM in the test on DU-145, over 1.1 µM with HEL92.1.7, over 1.1 µM in the test with LNCaP and 2.06 µM on STAT3.

On to `CC(C)Oc1cc(OC(F)(F)F)cc(C(C)(C)c2cc(Cl)cc(N(CCN3CCOCC3)C(=O)c3cc4cc(N(CCN5CCOCC5)S(C)(=O)=O)c(F)cc4s3)c2)c1` [Example 218, N-(3-chloro-5-(2-(3-isopropoxy-5-(trifluoromethoxy)phenyl)propan-2-yl)phenyl)-6-fluoro-N-(2-morpholinoethyl)-5-(N-(2-morpholinoethyl)methylsulfonamido)benzo[b]thiophene-2-carboxamide], for which the IC50 was over 1.1 µM with DU-145, over 1.1 µM with HEL92.1.7, 7.7 µM in the test on LNCaP and over 10 µM against STAT3.

Turning to `CC(C)Oc1cc(OC(F)(F)F)cc(C(C)(C)c2cc(Cl)cc(NC(=O)c3cc4cc(N(CCN(C)C)S(C)(=O)=O)c(F)cc4s3)c2)c1` [Example 219, N-(3-chloro-5-(2-(3-isopropoxy-5-(trifluoromethoxy)phenyl)propan-2-yl)phenyl)-5-(N-(2-(dimethylamino)ethyl)methylsulfonamido)-6-fluorobenzo[b]thiophene-2-carboxamide], the half-maximal inhibitory concentration (IC50) in the test with DU-145 was 0.18 µM; in the test with HEL92.1.7, 0.9 µM; with LNCaP, 0.19 µM; at STAT3 it was 1.19 µM.

For the compound `CS(=O)(=O)Nc1cc2cc(C(=O)Nc3cc(Cl)cc(-c4ccc(F)cc4F)c3)sc2cc1F` [Example 322, N-(5-chloro-2′,4′-difluoro-[1,1′-biphenyl]-3-yl)-6-fluoro-5-(methylsulfonamido)benzo[b]thiophene-2-carboxamide], the IC50 with DU-145 amounted to 0.011 µM; in the test on HEL92.1.7, 0.049 µM; with LNCaP, 0.021 µM; at STAT3, 0.028 µM.

`CS(=O)(=O)Nc1ccc2sc(C(=O)Nc3cc(Cl)cc(-c4ccc(F)cc4F)c3)cc2c1` [Example 323, N-(5-chloro-2′,4′-difluoro-[1,1′-biphenyl]-3-yl)-5-(methylsulfonamido)benzo[b]thiophene-2-carboxamide]: the IC50 in the test on DU-145 was 0.035 µM; with HEL92.1.7, 0.097 µM; in the test on LNCaP, 0.063 µM; at STAT3 it was 0.11 µM.

Consider `COc1cc(OC(F)(F)F)cc(-c2cc(Cl)cc(NC(=O)c3cc4cc(NS(C)(=O)=O)ccc4s3)c2)c1` [Example 324, N-(5-chloro-3′-methoxy-5′-(trifluoromethoxy)-[1,1′-biphenyl]-3-yl)-5-(methylsulfonamido)benzo[b]thiophene-2-carboxamide], for which the IC50 in the test with DU-145 stood at 0.4 µM; with HEL92.1.7, 0.83 µM; with LNCaP, 0.48 µM; on STAT3, 0.53 µM.

As to `COc1cc(OC(F)(F)F)cc(-c2cc(Cl)cc(NC(=O)c3cc4cc(NS(C)(=O)=O)c(F)cc4s3)c2)c1` [Example 325, N-(5-chloro-3′-methoxy-5′-(trifluoromethoxy)-[1,1′-biphenyl]-3-yl)-6-fluoro-5-(methylsulfonamido)benzo[b]thiophene-2-carboxamide], the IC50 in the test on DU-145 worked out at 0.15 µM; in the test with HEL92.1.7, 0.39 µM; with LNCaP, 0.16 µM; against STAT3 it was 0.24 µM.

On to `COc1cc(OC(F)(F)F)cc(-c2cc(Cl)cc(NC(=O)c3cc4cc(N(C)S(C)(=O)=O)c(F)cc4s3)c2)c1` [Example 326, N-(5-chloro-3′-methoxy-5′-(trifluoromethoxy)-[1,1′-biphenyl]-3-yl)-6-fluoro-5-(N-methylmethylsulfonamido)benzo[b]thiophene-2-carboxamide], for which the 50% inhibitory concentration (IC50) in the test with DU-145 turned out to be 0.064 µM; in the test on HEL92.1.7, 0.26 µM; in the test on LNCaP, 0.14 µM; on STAT3, 0.1 µM.

On to `O=C(Nc1cc(Cl)cc(-c2ccc(F)cc2F)c1)c1cc2cc(NS(=O)(=O)C3CCOC3)ccc2s1` (stereo not shown) [Example 327, N-(5-chloro-2′,4′-difluoro-[1,1′-biphenyl]-3-yl)-5-((tetrahydrofuran)-3-sulfonamido)benzo[b]thiophene-2-carboxamide], for which the IC50 came out at 0.034 µM in the test with DU-145, 0.082 µM in the test with HEL92.1.7, 0.088 µM with LNCaP and 0.041 µM at STAT3.

For the compound `COc1cc(OC(F)(F)F)cc(-c2cc(Cl)cc(NC(=O)c3cc4cc(NS(=O)(=O)C5CCOC5)ccc4s3)c2)c1` (stereo not shown) [Example 328, N-(5-chloro-3′-methoxy-5′-(trifluoromethoxy)-[1,1′-biphenyl]-3-yl)-5-((tetrahydrofuran)-3-sulfonamido)benzo[b]thiophene-2-carboxamide], the 50% inhibitory concentration (IC50) with DU-145 amounted to 0.39 µM; in the test on HEL92.1.7 it was 0.5 µM; with LNCaP, 0.34 µM; against STAT3 it was 0.34 µM.

On to `CN(c1cc2cc(C(=O)Nc3cc(Cl)cc(-c4ccc(F)cc4F)c3)sc2cc1F)S(C)(=O)=O` [Example 329, N-(5-chloro-2′,4′-difluoro-[1,1′-biphenyl]-3-yl)-6-fluoro-5-(N-methylmethylsulfonamido)benzo[b]thiophene-2-carboxamide], for which the 50% inhibitory concentration (IC50) in the test with DU-145 worked out at 0.004 µM; in the test with HEL92.1.7, 0.009 µM; in the test with LNCaP it was 0.008 µM; at STAT3, 0.01 µM.

Regarding `O=C(Nc1cc(Cl)cc(-c2ccc(F)cc2F)c1)c1cc2cc(NS(=O)(=O)C3CCOC3)c(F)cc2s1` (stereo not shown) [Example 330, N-(5-chloro-2′,4′-difluoro-[1,1′-biphenyl]-3-yl)-6-fluoro-5-((tetrahydrofuran)-3-sulfonamido)benzo[b]thiophene-2-carboxamide], the concentration for half-maximal inhibition (IC50) in the test with DU-145 worked out at 0.005 µM; with HEL92.1.7 it was 0.057 µM; in the test on LNCaP, 0.011 µM; on STAT3, 0.029 µM.

For the compound `CS(=O)(=O)Nc1ccc2sc(C(=O)Nc3cc(Br)cc(S(=O)(=O)N4CCc5ccc(F)cc5C4)c3)cc2c1` [Example 418, N-(3-bromo-5-((7-fluoro-3,4-dihydroisoquinolin-2(1H)-yl)sulfonyl)phenyl)-5-(methylsulfonamido)benzo[b]thiophene-2-carboxamide], the half-inhibitory concentration (IC50) in the test with DU-145 was found to be 0.98 µM; with HEL92.1.7, 2.2 µM; in the test with LNCaP it was 1.6 µM; on STAT3 it was 0.84 µM.
